Tests used:
Duck hepatitis B virus [1] = experiment: Antiviral activity against duck Hepatitis B virus infected in duck assessed as inhibition of viral DNA replication in serum at 0.04 to 20 mg/kg, po; assay type: functional, organism-based; details: TDE = time-dependent effect
Duck hepatitis B virus [2] = experiment: Antiviral activity against duck Hepatitis B virus infected in duck assessed as inhibition of viral DNA replication in serum at 0.04 mg/kg/day, po treatment initiated at day 10 after infection relative to control; assay type: functional; details: 240 h
Duck hepatitis B virus [3] = experiment: Antiviral activity against duck Hepatitis B virus infected in duck assessed as inhibition of viral DNA replication in liver at 1 mg/kg/day, po treatment initiated at day 10 after infection relative to control; assay type: functional; details: 240 h

[N-]=[N+]=N[C@]1(CO)O[C@@H](n2ccc(NC3CC3)nc2=O)[C@@H](F)[C@@H]1O
inhibition (Duck hepatitis B virus [1]): tde | inhibition in vivo at 0.04 mg/kg/day (Duck hepatitis B virus [2]): 43.4% | inhibition in vivo at 1 mg/kg/day (Duck hepatitis B virus [3]): 82.1%

Source: ChEMBL document CHEMBL3580594, “Synthesis and biological evaluation of 4-substituted fluoronucleoside analogs for the treatment of hepatitis B virus infection” (J Med Chem, 2015)
